In patent US20140065241A1, “USES OF (-)-PERHEXILINE” (Adelaide Research & Innovation Pty Ltd, priority 2012, published 2014):

What was measured:
[1] = clinical use of racemic drug; cited from earlier work
[2] = tested on: rat isoprenaline model of heart failure; assay: Plasma troponin T in rat isoprenaline model of heart failure; format: in vivo; conditions: DA rats; 2 weeks pre-treatment 200 mg/kg/day; isoprenaline 50 mg/kg i.p.; plasma 3 hr after
Procedure: The effect of racemic perhexyline, (+)-perhexyline and (−)-perhexyline on myocardial damage in a rat isoprenaline model of heart failure, using Troponin T as an indirect measure of myocardial damage was investigated. The use of a rat isoprenaline model of heart failure is as described in Teerlink, J R et al. (1994) “Progressive ventricular remodeling in response to diffuse isoproterenol-induced myocardial necrosis in rats” Circ Res, 75: 105-13.
DA rats were treated for 2 weeks with vehicle or 200 mg/kg/day of racemic, (+)- or (−)-perhexyline maleate, on day 15 myocardial necrosis was induced by i.p. injection of 50 mg/kg isoprenaline, with a second group of controls receiving an i.p. injection of saline (n=5). Cardiac troponin T levels were measured in plasma collected 3 hr following treatment by venipuncture of the tail vein.

rat isoprenaline model = assay: Histological assessment of isoprenaline-induced myocardial injury; format: in vivo; conditions: DA rats; 2 weeks pre-treatment 200 mg/kg/day; isoprenaline 50 mg/kg
Procedure: DA rats were treated for 2 weeks with vehicle or 200 mg/kg/day of racemic, (+)- or (−)-perhexyline maleate, on day 15 myocardial necrosis was induced by i.p. injection of 50 mg/kg isoprenaline, with a second group of controls receiving an i.p. injection of saline (n=5). Cardiac troponin T levels were measured in plasma collected 3 hr following treatment by venipuncture of the tail vein. […] The severity and extent of myocardial injury were assessed by a pathologist who was blinded to the treatment, and classified as: 0—no change; 1—mild (single mild focus of myocyte damage or multiple small foci with mild inflammatory cell infiltrate); 2—moderate (multiple larger foci of myocyte damage with moderate inflammatory cell infiltrate) and 3—severe (multiple larger foci of myocyte damage with severe inflammatory cell infiltrate or broad zone of necrosis with extensive inflammation). Results were analysed by dividing animals into two response groups 0-1: no or mild >1: moderate to severe.

Dark Agouti (DA) rats = assay: Histological (electron microscopy) assessment of hepatic lipid and glycogen content after 8 weeks of dosing; format: in vivo, rat; conditions: for hepatic glycogen content / hepatic lipid content: 200 mg/kg daily for 8 weeks, vs vehicle, 200 mg/kg
Procedure: Adult female Dark Agouti (DA) rats (n=4 in each group) were administered 200 mg/kg daily of vehicle, racemic-, (+) or (−)-perhexyline maleate for a period of 2 months. The perhexyline maleate compound was administered mixed with peanut paste and coated onto standard rat chow. On day 56 of dosing, animals were anesthetized and blood was collected via a cardiac puncture in order to determine the concentrations of perhexyline enantiomers. Animals were then euthanized and hepatic, cardiac and neuronal tissues were harvested in order to determine perhexyline enantiomer and metabolite tissue concentrations and morphological changes. Tissues were cut in half and either immediately snap frozen in liquid nitrogen or placed into fixative solution for electron microscopy analysis. Tissue was dissected into cubes of approximately 0.5 mm in each dimension and was fixed for one hour in electron microscopy (EM) fixative (4% formaldehyde and 1.5% glutaraldehyde in sodium cacodylate buffer, pH 7.2). The fixed tissue was post-fixed in 2% osmium tetroxide in sodium cacodylate buffer, en bloc stained with 2% uranyl acetate and dehydrated through 70%, 90% and 100% ethanol. Then, the tissue was processed through 1,2-epoxypropane, a 50/50 mixture of 1,2-epoxypropane and Procure 812 resin (Electron Microscopy Sciences, Fort Washington, USA) and two changes of 100% resin. Tissue and resin were transferred to Beem capsules and placed in an oven overnight at 90° C. Survey sections of tissue blocks were cut with glass knives and stained with Toluidine Blue. Thin sections were cut at approximately 100 nm thickness on a Porter-Blum ultramicrotome (Sorvall, Newtown, USA) using a diamond knife (Micro Star Technologies, Huntsville, USA). Thin sections were stained with Reynolds' lead citrate and examined in a Hitachi H-600 transmission electron microscope (Tokyo, Japan 1983). Glycogen and lipids were identified and total content was measured as a percentage of the field of view.

Dark Agouti rats = assay: Peripheral neural function by von Frey filament testing (paw withdrawal threshold); format: in vivo, rat; conditions: DA rats treated for 8 weeks, vs vehicle
Procedure: At 56 days, neuronal function was measured prior to euthanasia using von Frey filament testing. The thickness of each filament corresponds to a specific amount of pressure (in grams). Each animal was placed in a specifically designed plastic container, with the bottom replaced by mesh flooring. The animal was left for 10-15 minutes to settle into its new environment. In ascending order, von Frey filaments were applied from beneath the mesh flooring to the plantar surface of the paw until the filament buckled and was held there for a total of 10 seconds. A positive response was noted if the paw was withdrawn within the 10-second period. If a filament induced 6 positive responses, the grams corresponding to that filament were recorded as the paw withdrawal threshold.
To test the effect of each enantiomer on peripheral neural function, a Von Frey hairs model was used.

[3] = Perhexyline enantiomer concentrations in plasma, liver and heart; format: in vivo, rat; conditions: DA rats; for plasma concentration: pure enantiomer 200 mg/kg daily for 8 weeks
Procedure: Adult female Dark Agouti (DA) rats (n=4 in each group) were administered 200 mg/kg daily of vehicle, racemic-, (+) or (−)-perhexyline maleate for a period of 2 months. The perhexyline maleate compound was administered mixed with peanut paste and coated onto standard rat chow. On day 56 of dosing, animals were anesthetized and blood was collected via a cardiac puncture in order to determine the concentrations of perhexyline enantiomers. Animals were then euthanized and hepatic, cardiac and neuronal tissues were harvested in order to determine perhexyline enantiomer and metabolite tissue concentrations and morphological changes. Tissues were cut in half and either immediately snap frozen in liquid nitrogen or placed into fixative solution for electron microscopy analysis.
Plasma, liver and hear concentrations were measured in Dark Agouti rats treated for 8 weeks with 200 mg/kg/day of (+)-, (−)- or racemic-perhexyline (animals as described in Example 2) using the method of Davies et al., Journal of Chromatography B, 832 (2006) 114-120.
The data are shown in FIGS. 6A and 6B with concentrations adjusted to the equivalent of a 100 mg/kg enantiomeric dose.

human neutrophil NOX2 = target: T1, human neutrophil NOX2 (Homo sapiens, UniProt P04839); assay: Inhibition of ex vivo superoxide formation by NOX2 in human neutrophils; format: cell-based; conditions: neutrophils from 11 healthy young volunteers
T1 construct: Using neutrophils from 11 healthy young volunteers; endogenous in cells; host or cells: human neutrophils from healthy volunteers
T1 sequence (P04839 2-570 limits assumed): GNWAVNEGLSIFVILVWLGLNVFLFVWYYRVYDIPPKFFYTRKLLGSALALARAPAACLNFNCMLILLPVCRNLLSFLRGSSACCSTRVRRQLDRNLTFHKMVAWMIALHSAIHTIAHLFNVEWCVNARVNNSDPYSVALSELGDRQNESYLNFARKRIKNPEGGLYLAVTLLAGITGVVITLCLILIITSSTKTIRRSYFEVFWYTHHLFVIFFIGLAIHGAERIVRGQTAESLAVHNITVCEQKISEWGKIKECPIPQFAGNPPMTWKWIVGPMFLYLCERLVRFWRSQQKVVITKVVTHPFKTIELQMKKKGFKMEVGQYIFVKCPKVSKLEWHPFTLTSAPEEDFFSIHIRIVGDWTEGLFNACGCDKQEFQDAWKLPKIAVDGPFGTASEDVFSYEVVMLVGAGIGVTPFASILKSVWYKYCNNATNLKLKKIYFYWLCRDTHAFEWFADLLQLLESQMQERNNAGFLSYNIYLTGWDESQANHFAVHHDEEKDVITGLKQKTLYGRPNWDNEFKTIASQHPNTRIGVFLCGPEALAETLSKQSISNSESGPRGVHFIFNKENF
T1 sequence (P13498 2-195 partner limits assumed): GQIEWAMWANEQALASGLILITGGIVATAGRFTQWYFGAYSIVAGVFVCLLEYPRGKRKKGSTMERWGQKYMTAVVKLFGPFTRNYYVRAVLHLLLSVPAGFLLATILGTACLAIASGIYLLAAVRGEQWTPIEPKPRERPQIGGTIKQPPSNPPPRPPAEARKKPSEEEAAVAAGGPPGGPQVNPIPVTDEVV
Description: As an index of anti-inflammatory and nitric oxide-sparing potential, the relative potency of the enantiomers as inhibitors of ex vivo superoxide formation by NOX2 was investigated in human neutrophils.
Whilst this enantioselectivity is consistent with different therapeutic indices for the enantiomers, it can be seen that both still contribute to perhexyline's anti-inflammatory effects.

TXNIP = assay: Myocardial TXNIP staining (immunohistochemistry) after isoprenaline; format: in vivo, rat; conditions: DA rats; 2 weeks pre-treatment 200 mg/kg/day; isoprenaline 50 mg/kg
Description: CONT; *=P<0.05 c.f. ISO; ̂=P=0.05 c.f. ISO. […] T×NIP is a regulatory protein which couples substrate utilization and redox state. Increased expression of T×NIP is associated with increased oxidative stress, decreased insulin secretion, decreased glucose uptake and suppression of PPARα (a major nuclear transcription factor regulating lipid metabolism). Thus, both (−)-perhexyline and (+)-perhexyline may also exert cardioprotection via inhibition of T×NIP.

[4] = tested on: pyruvate dehydrogenase (PDH); assay: Total and phosphorylated pyruvate dehydrogenase in heart tissue by Western blots; format: in vivo; conditions: DA rat heart; 2 weeks 200 mg/kg/day; isoprenaline 50 mg/kg
Procedure: DA rats were treated for 2 weeks with vehicle or 200 mg/kg/day of racemic, (+)- or (−)-perhexyline maleate, on day 15 myocardial necrosis was induced by i.p. injection of 50 mg/kg isoprenaline (HCl salt), with a second group of controls receiving an i.p. injection of saline (n=5-8). Total and phosphorylated pyruvate dehydrogenase in heart tissue was measured by Western blots.

[5] = 8 weeks 200 mg/kg/day, dose-adjusted

hepatic lipid content (Dark Agouti (DA) rats) | neural sensory function (Von Frey hairs) (Dark Agouti rats) | distribution into liver, pure enantiomer compared to the racemic formulation [3, 5] | plasma concentration [3] [µg/mL] | EC50 (human neutrophil NOX2) [µM] | tissue distribution, pure enantiomer vs as part of the racemic formulation [3, 5] | SMILES | plasma concentration at which severe adverse effects (hepatotoxicity, peripheral neuropathy) are typically seen [1] | recipients with adverse effects [1] | effect on isoprenaline-induced rise in plasma troponin T [2] | isoprenaline-induced myocardial damage (histological score) (rat isoprenaline model) | hepatic glycogen content (Dark Agouti (DA) rats) | hepatic steatosis (Dark Agouti (DA) rats; 8 weeks, plasma concentrations similar to those causing hepatotoxicity in humans) | isoprenaline-induced increase in myocardial TXNIP staining (TXNIP) | PDH deactivation (measured as phosphorylated PDH) [4] | inhibition of PDH deactivation compared with (+)-perhexyline [4] | total PDH expression [4]
 |  |  |  |  |  | C1CCC(C(CC2CCCCN2)C2CCCCC2)CC1 (racemic) [racemic perhexyline, 2-(2,2-dicyclohexylethyl) piperidine] | greater than 0.6 mg/L | more than 60% | not affected |  |  |  |  |  |  | 
significantly increased | significant decline | significantly increased | 0.52 to 0.80 | 1.8 |  | C1CCC(C(CC2CCCCN2)C2CCCCC2)CC1 (single isomer, unassigned; (+)) [(+)-perhexyline, (+)-enantiomer of perhexyline] |  |  | not affected | only partially attenuated | appeared to decrease | causes hepatic steatosis | attenuated |  |  | 
no effect | did not |  | 0.22 to 0.39 | 1.3 | similar | C1CCC(C(CC2CCCCN2)C2CCCCC2)CC1 (single isomer, unassigned; (-)) [(−)-perhexyline, (−)-enantiomer of perhexyline] |  |  | exacerbated | attenuated | significantly increased |  | attenuated | extremely potent inhibitor | more potent | did not affect
